Measurements published in US11993576B2, “N-benzyl-N-arylsulfonamide derivative and preparation and use thereof” (Hangzhou Yirui Pharmaceutical Technology Co., Ltd, priority 2019, dated 2024).
pIC50: −log10 of the molar value.

What was measured:
[1] = molecular target: human Kv1.5 (Homo sapiens, UniProt P22460); assay: Conventional patch clamp assay of inhibitory activity against Kv1.5; assay type: cell-based; conditions: conventional patch-clamp method; CHO-K1 cells stably expressing human Kv1.5
Protocol: III. Conventional Patch Clamp Assay of Inhibitory Activity Against Kv1.5
The principle and method for the conventional patch clamp method can be found in Grissmer et al. [Grissmer et al. Molecular Pharmacology 1994, 45:1227-1234].
(§1) Inhibitory activity of a compounds against Kv1.5 was assessed using a CHO-K1 recombinant cell line stably expressing human Kv1.5 (Charles River, Calif.). The cells were cultured in an F-12K culture medium containing 5% calf serum (Invitrogen, Carlsbad.ca) in an incubator at 37° C. and under air humidity with 6% CO2.
(§2) During the experiment, adherent cells were placed in a recording chamber under an inverted microscope. All the experiments were performed at room temperature. Each of the cells used itself as the control.
(§3) The test compounds were formulated to their final concentrations on the day of assay, and then dissolved in an extracellular fluid. The extracellular fluid (mM) was: NaCl, 137; KCl, 4; CaCl2, 1.8; MgCl2, 1; HEPES, 10; glucose 10; pH 7.4 (NaOH titration). All the solutions of the test compounds and the control compounds contained 0.3% of DMSO.
(§4) Each of the compounds was perfused by a gravity-driven perfusion system. At least two cells were tested for each of the concentrations of a compound. After the current was stable, the blocking effect of the compounds was calculated by comparing the change in the current before and after administration of the compounds.
1000 μM 4-AP was used as a positive control.
(§5) The cells were transferred to a perfusion chamber, and were perfused with the extracellular fluid. Intracellular fluid (mM): K-aspartate, 130; MgCl2, 5; EGTA 5; HEPES, 10; pH 7.2 (KOH titration). The intracellular fluid was stored in a small amount in a refrigerator at −80° C. in batches, and was thawed on the day of the experiment. The electrodes were drawn by PC-10 (Narishige, Japan). A whole-cell patch-clamp recording was performed, with the noise being filtered by one-fifth of the sampling frequency.
(§6) The cells were clamped at −80 mV and then depolarized to 20 mV with square waves lasting for 2 seconds to obtain a Kv1.5 current. This process was repeated every 20 seconds. The maximum current elicited by the square waves was detected. After the maximum current became stable, the test compounds were perfused. After the reaction was stable, the blocking strength was calculated.
Data was collected and analyzed using pCLAMP 10 (Molecular Devices, Union City, CA). A stable current meant a current which varies within a limited range over time. The value of the stable current was used to calculate the effect of a compound at this […].

[2] = molecular target: human Kv1.3 (Homo sapiens, UniProt P22001); assay: Conventional patch clamp assay of inhibitory activity against Kv1.3; assay type: cell-based; conditions: conventional patch-clamp method; CHO-K1 cells stably expressing human Kv1.3
Source text: II. Conventional Patch Clamp Assay of Inhibitory Activity Against Kv1.3
In order to compare the influence of different assay methods on the inhibitory activity of a compound, the conventional patch clamp method was used to assay the inhibitory activities of compounds 21, 37, 44, 61 against Kv1.3. The principle and method for the conventional patch clamp method can be found in Grissmer et al. [Grissmer et al. Molecular Pharmacology 1994, 45:1227-1234].
as §1, with “of the” for “of a”, “against Kv1.3” for “against Kv1.5”, “human Kv1.3” for “human Kv1.5”, “River, California).” for “River, Calif.).”
as §2, §3
as §4, with “compounds. 1000 μM 4-AP was used as a positive control.” for “compounds.”
as §5
as §6, with “to 0” for “to 20”, “a Kv1.3” for “a Kv1.5”
Data was collected and analyzed using pCLAMP 10 (Molecular Devices, Union City, CA). A stable current meant a current which varies within a limited range over time. […]

[3] = system: rat model of allergic contact dermatitis (ACD); assay: Rat model of allergic contact dermatitis (ACD model) induced by DNCB; assay type: in vivo; conditions: SD female rats, 5%, 1.5%, 0.5% applied to right ear by wiping three times a day, 4 days, FIG. 1
Protocol: IV. Effects of Compound 37 on a Rat Model of Allergic Contact Dermatitis (ACD Model) 1. Laboratory Animal
SPF SD female rats with body weight of 130-150 g were used.
Dexamethasone (DXMS) sodium phosphate injection, 5 mg/ml/injection (Shiyao Yinhu Pharmaceutical Co., Ltd.); 1-chloro-2,4-dinitrobenzene (DNCB) (TCI Shanghai); vehicle and negative control: acetone/DMSO 9:1 (Vehicle, Model group).
3.1 The animals were randomly divided into 6 groups based on body weight with 10 animals per group: blank control group, model control group, positive control group (dexamethasone sodium phosphate injection 5 mg/mL), 5% Compound 37 group, 1.5% Compound 37 group and 0.5% Compound 37 group.
3.2 Modeling and administration: a rat model of allergic contact dermatitis (ACD) was established by sensitizing and stimulating the rat's skin with a DNCB solution in acetone and DMSO (acetone-DMSO 9:1). The rats were normally fed in a SPF barrier system for 1 week. Long hair was removed with a razor and short hair was removed with depilatory cream within an area of about 2 cm×2 cm from abdomen of the rats one day before the experiment. […]
3.3 Measurement of difference between ear thicknesses: before the stimulation and after the final administration, the thickness of central parts of left and right ears of the rats in each of the groups was measured with electronic digital calipers. […]

Sequence of human Kv1.3 (P22001 whole entry): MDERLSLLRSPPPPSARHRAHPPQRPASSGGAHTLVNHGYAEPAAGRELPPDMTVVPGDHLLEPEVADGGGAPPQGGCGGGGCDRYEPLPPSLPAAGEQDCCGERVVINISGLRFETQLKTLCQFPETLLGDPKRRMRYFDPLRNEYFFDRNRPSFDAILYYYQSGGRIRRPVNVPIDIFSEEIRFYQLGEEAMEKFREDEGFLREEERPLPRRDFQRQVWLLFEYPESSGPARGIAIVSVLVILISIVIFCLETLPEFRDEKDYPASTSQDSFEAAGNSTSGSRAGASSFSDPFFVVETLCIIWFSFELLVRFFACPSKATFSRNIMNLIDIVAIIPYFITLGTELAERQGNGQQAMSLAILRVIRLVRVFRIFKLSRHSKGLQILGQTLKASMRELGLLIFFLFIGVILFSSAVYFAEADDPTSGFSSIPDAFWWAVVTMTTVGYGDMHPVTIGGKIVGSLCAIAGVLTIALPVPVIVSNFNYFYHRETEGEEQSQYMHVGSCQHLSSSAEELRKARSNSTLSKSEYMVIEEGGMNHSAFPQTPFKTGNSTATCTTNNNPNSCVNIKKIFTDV
Sequence of human Kv1.5 (P22460 whole entry): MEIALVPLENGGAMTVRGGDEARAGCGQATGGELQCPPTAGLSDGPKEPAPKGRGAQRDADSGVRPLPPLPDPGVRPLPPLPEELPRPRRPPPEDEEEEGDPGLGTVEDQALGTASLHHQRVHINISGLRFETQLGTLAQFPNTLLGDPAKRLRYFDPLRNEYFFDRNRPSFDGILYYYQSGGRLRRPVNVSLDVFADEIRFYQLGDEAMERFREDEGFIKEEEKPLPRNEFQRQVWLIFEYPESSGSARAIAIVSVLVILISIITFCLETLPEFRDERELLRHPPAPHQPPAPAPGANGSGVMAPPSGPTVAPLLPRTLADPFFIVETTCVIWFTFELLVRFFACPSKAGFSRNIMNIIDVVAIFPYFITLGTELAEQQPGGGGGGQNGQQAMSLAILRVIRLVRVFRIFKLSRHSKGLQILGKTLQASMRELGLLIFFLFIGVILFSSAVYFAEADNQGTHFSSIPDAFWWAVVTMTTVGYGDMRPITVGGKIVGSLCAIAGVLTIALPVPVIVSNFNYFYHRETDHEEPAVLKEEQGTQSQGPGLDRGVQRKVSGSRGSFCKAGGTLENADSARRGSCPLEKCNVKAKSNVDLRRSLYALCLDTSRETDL

CC(C)CS(=O)(=O)N(Cc1ccc(F)cc1)c1ccc(N2CCN(C(=O)N(C)C)CC2)c(C#N)c1 [Compound 37, 4-(2-cyano-4-((N-(4-fluorobenzyl)-2-methylpropyl)sulfonamido)phenyl)-N,N-dimethylpiperazin-1-formamide]
pIC50 [1]: 5.44
pIC50 [2]: 6.97
ear inflammation (difference between ear thicknesses) [3]: significantly reduced ear inflammation
